Columns and labels:
Experiment in all cases: Inhibition of receptor tyrosine kinase activity at molecular level (ELISA, Poly(Glu,Tyr)4:1 substrate phosphorylation)
Type in all cases: biochemical
FGFR1 = FGFR1 (Homo sapiens, UniProt P11362); details: for 10 nM inhibition ratio FGFR1: 10 nM compound, average of two independent experiments; for inhibition ratio FGFR1 (100 nM): 100 nM compound
Protocol: (§1) Enzyme reaction substrate Poly(Glu, Tyr)4:1 was diluted with potassium-free PBS (10 mM sodium phosphate buffer, 150 mM NaCl, pH 7.2-7.4) to 20 μg/mL. […] The reaction was conducted under 37° C. for 12-16 hours. After the liquid was removed from the wells, the plate was washed three times with 200 μL/well of T-PBS (PBS containing 0.1% Tween-20), each for 5 minutes. The enzyme plate was dried in 37° C. dryer for 1-2 hours.
(§2) 50 μL ATP solution diluted with buffer (50 mM HEPES pH 7.4, 50 mM MgCl2, 0.5 mM MnCl2, 0.2 mM Na3VO4, 1 mM DTT) to a final concentration of 5 μM was added into each well. The compound was diluted with DMSO to a suitable concentration (1 μL/well) or the well contained the corresponding concentration of DMSO (negative control well) Then various kinase recombinant proteins diluted with 49 μL of reaction buffer was added to initiate the reaction. Each experiment required duplicate enzyme-free control well. The reaction was carried out for 1 hour on a 37° C. Shaker (100 rpm). The plate was washed three times with T-PBS. A dilution of the primary antibody PY99 was added (100 μL/well), and the reaction was conducted in a shaker at 37° C. for 0.5 hr. The plate was washed three times with T-PBS. A dilution of the horseradish peroxidase-labeled goat anti-mouse IgG secondary antibody was added (100 μL/well), and the reaction was conducted in a shaker at 37° C. for 0.5 hour. Plate was washed with T-PBS for three times. 2 mg/mL OPD coloration solution (diluted with 0.1 M citric acid-sodium citrate buffer containing 0.03% H2O2 (pH=5.4)) was added (100 μL/well), reacted for 1-10 minutes at 25° C. in dark. The reaction was quenched with 2M H2SO4 (50 μL/well), and read at 490 nm using a tunable microplate reader SPECTRA MAX 190.
(§3) The inhibition ratio of the sample was determined by the following formula: […]
(§4) The IC50 values were obtained via four-parameter regression analysis using the software supplied with the microplate reader.

KDR = KDR (Homo sapiens, UniProt P35968); details: for 10 nM inhibition ratio KDR: 10 nM compound, average of two independent experiments
Chain of KDR (P35968 20-1356): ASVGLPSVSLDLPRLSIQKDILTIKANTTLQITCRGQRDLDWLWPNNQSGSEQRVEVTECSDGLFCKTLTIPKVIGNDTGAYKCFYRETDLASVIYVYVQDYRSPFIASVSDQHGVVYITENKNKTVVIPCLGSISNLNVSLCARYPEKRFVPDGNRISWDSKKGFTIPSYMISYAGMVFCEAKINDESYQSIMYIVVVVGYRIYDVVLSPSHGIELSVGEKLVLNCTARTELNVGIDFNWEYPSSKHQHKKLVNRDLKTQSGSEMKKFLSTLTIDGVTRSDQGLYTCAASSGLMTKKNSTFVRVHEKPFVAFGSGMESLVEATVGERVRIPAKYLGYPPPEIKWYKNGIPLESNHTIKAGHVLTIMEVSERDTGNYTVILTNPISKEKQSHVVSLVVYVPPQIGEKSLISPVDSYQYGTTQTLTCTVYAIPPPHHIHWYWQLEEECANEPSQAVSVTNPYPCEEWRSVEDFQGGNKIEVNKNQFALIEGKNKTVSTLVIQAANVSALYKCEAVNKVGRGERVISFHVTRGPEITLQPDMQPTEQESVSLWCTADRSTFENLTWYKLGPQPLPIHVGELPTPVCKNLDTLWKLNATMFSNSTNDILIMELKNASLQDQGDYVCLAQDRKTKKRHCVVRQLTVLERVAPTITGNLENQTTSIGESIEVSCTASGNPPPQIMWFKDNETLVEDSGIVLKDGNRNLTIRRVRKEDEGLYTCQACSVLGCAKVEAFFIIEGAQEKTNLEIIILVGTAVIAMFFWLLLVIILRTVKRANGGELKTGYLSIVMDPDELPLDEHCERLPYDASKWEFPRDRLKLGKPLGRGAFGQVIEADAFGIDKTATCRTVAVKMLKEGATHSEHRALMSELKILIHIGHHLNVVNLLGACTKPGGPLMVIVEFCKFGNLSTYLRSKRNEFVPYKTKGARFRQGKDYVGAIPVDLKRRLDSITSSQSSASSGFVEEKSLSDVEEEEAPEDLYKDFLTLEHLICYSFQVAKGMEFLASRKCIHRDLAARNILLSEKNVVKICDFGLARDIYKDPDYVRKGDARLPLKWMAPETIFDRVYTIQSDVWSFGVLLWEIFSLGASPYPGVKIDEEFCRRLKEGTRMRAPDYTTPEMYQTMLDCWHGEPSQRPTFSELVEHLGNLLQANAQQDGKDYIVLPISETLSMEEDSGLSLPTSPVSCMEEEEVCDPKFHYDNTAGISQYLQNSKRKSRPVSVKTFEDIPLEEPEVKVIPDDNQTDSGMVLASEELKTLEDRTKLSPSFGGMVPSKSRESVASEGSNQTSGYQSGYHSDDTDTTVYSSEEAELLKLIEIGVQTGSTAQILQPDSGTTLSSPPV
Protocol: as §1, §2, §3, §4

RET = RET (Homo sapiens, UniProt P07949); details: for 10 nM inhibition ratio RET: 10 nM compound, average of two independent experiments
Chain of RET (P07949 29-1114): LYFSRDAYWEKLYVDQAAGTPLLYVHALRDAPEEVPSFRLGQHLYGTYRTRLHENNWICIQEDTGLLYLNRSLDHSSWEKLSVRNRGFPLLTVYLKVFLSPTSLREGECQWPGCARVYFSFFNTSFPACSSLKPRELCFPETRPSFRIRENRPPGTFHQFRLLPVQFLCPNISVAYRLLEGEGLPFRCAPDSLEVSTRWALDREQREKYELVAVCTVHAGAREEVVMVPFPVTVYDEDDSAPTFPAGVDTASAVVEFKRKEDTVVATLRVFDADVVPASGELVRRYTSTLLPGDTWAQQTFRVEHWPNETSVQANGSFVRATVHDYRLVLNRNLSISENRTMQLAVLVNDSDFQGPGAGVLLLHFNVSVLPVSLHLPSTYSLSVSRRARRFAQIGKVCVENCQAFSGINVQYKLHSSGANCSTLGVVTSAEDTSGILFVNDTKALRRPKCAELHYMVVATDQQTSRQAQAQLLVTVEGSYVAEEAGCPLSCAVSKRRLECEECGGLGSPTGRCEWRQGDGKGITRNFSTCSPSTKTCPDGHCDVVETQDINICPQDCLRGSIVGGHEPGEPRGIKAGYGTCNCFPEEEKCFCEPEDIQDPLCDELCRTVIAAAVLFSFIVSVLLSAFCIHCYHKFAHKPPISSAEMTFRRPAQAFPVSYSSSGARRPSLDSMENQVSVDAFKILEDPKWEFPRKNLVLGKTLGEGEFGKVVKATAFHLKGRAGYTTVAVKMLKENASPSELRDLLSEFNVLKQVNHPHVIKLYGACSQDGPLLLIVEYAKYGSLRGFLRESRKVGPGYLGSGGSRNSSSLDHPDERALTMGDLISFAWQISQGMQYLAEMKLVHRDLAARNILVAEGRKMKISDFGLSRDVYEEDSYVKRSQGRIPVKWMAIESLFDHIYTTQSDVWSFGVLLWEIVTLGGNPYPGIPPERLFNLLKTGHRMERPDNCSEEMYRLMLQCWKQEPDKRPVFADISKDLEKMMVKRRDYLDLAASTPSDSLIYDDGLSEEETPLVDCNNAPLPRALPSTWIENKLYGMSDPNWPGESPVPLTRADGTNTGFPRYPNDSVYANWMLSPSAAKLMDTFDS
Protocol: as §1, §2, §3, §4

Chain of FGFR1 (P11362 22-822): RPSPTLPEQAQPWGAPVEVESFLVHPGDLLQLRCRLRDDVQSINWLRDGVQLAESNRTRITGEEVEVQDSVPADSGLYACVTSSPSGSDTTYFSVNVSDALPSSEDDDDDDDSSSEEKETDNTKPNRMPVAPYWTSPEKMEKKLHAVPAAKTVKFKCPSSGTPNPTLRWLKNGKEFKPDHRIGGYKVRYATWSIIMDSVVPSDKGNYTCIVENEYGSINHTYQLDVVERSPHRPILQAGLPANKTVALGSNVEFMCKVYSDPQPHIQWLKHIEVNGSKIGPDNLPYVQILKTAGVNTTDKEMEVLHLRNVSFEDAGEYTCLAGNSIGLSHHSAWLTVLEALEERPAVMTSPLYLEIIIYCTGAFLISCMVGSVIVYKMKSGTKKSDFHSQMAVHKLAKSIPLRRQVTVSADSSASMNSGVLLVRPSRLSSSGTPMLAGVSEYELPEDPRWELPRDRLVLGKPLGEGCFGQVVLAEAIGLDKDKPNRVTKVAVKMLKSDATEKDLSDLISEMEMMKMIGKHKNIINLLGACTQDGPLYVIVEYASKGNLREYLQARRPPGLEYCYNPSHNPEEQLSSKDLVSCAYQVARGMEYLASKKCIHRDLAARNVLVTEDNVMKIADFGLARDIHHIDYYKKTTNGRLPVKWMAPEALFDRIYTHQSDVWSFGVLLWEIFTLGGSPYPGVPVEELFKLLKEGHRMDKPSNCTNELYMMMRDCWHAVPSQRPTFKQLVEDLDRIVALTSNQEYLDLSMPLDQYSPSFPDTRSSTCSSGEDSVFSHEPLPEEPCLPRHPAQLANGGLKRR

| Compound | 10 nM inhibition ratio FGFR1 (FGFR1) | 10 nM inhibition ratio KDR (KDR) | 10 nM inhibition ratio RET (RET) | inhibition ratio FGFR1 (100 nM) (FGFR1) | inhibition ratio KDR (100 nM) (KDR; 100 nM compound) | inhibition ratio RET (100 nM) (RET; 100 nM compound) |
| --- | --- | --- | --- | --- | --- | --- |
| COCCOc1cnc(N)c(C#Cc2cc(C(=O)Nc3ccc(CN4CCN(C)CC4)c(C(F)(F)F)c3)ccc2Cl)c1 [Example 27] | 78.2 | 34.1 | 69.5 |  |  |  |
| CNCCOc1cnc(N)c(C#Cc2cc(C(=O)Nc3ccc(CN4CCN(C)CC4)c(C(F)(F)F)c3)ccc2Cl)c1 [Example 28] | 68.5 | 28.7 | 79.3 |  |  |  |
| CN(C)CCOc1cnc(N)c(C#Cc2cc(C(=O)Nc3ccc(CN4CCN(C)CC4)c(C(F)(F)F)c3)ccc2Cl)c1 [Example 29] | 44.9 | 14.3 | 55.2 |  |  |  |
| CN1CCN(Cc2ccc(NC(=O)c3ccc(Cl)c(C#Cc4cc(CO)cnc4N)c3)cc2C(F)(F)F)CC1 [Example 30] | 55.2 | 5.8 | 77.8 |  |  |  |
| CN1CCN(Cc2ccc(NC(=O)c3ccc(Cl)c(C#Cc4cc(COC(F)(F)F)cnc4N)c3)cc2C(F)(F)F)CC1 [Example 32] | 66.3 | 37.2 | 70.8 |  |  |  |
| CNCc1cnc(N)c(C#Cc2cc(C(=O)Nc3ccc(CN4CCN(C)CC4)c(C(F)(F)F)c3)ccc2Cl)c1 [Example 33] | 49.8 | 35.1 | 77.8 |  |  |  |
| CN1CCN(Cc2ccc(NC(=O)c3ccc(Cl)c(C#Cc4cc(N(C)C)cnc4N)c3)cc2C(F)(F)F)CC1 [Example 36] | 49.9 | 12.1 | 56.3 |  |  |  |
| CN1CCN(Cc2ccc(NC(=O)c3cccc(C#Cc4cc(NC(=O)C5CC5)cnc4N)c3)cc2C(F)(F)F)CC1 [Example 38] | 51.8 | 44.1 | 65.3 |  |  |  |
| CN1CCC(Oc2ccc(NC(=O)c3ccc(Cl)c(C#Cc4cccnc4N)c3)cc2C(F)(F)F)CC1 [Example 41] | 53.4 | 35.4 | 77.3 |  |  |  |
| CN1CCN(Cc2ccc(NC(=O)c3ccc(Cl)c(C#Cc4nccnc4N)c3)cc2C(F)(F)F)CC1 [Example 46] | 48.5 | 43.1 | 95.1 |  |  |  |
| CN1CCN(Cc2ccc(NC(=O)c3cccc(C#Cc4nc(F)cnc4N)c3)cc2C(F)(F)F)CC1 [Example 47] | 55.1 | 40.8 | 89.1 |  |  |  |
| CN1CCN(Cc2ccc(NC(=O)c3ccc(Cl)c(C#Cc4c(F)ccnc4N)c3)cc2C(F)(F)F)CC1 [Example 49] | 77.1 | 33.2 | 69.5 |  |  |  |
| CC(C)(C)OC(=O)N1CCN(Cc2ccc(NC(=O)c3ccc(Cl)c(C#Cc4cccnc4N)c3)cc2C(F)(F)F)CC1 [Example 50] | 56.3 | 27.8 | 55.1 |  |  |  |
| Nc1ncccc1C#Cc1cc(C(=O)Nc2ccc(CN3CCNCC3)c(C(F)(F)F)c2)ccc1Cl [Example 51] | 67.9 | 38.2 | 79.4 |  |  |  |
| CN1CCN(Cc2ccc(NC(=O)c3ccc(Cl)c(C#Cc4cccnc4N)c3)cc2C(F)(F)F)CC1.Cl [Example 52] | 75.2 | 40.2 | 89.3 |  |  |  |
| [2H]C([2H])([2H])N1CCN(Cc2ccc(NC(=O)c3ccc(Cl)c(C#Cc4cccnc4N)c3)cc2C(F)(F)F)CC1 [Example 53] | 78.3 | 42.1 | 87.0 |  |  |  |
| Cc1ncccc1C#Cc1cc(C(=O)Nc2ccc(CN3CCN(C)CC3)c(C(F)(F)F)c2)ccc1Cl [HuFGFR143, reference compound] |  | 26.4 | 35.2 | 19.9 |  |  |
| COc1ncccc1C#Cc1cc(C(=O)Nc2ccc(CN3CCN(C)CC3)c(C(F)(F)F)c2)ccc1Cl [HuFGFR148, reference compound] |  | 18.2 | 21.7 | 22.4 |  |  |
| CN1CCN(Cc2ccc(NC(=O)c3ccc(Cl)c(C#Cc4ccc(N)nc4)c3)cc2C(F)(F)F)CC1 [HuFGFR151, reference compound] |  |  |  | 21.1 | 23.9 | 29.7 |

Further lines, results first:

| 10 nM inhibition ratio FGFR1 (FGFR1) | 10 nM inhibition ratio KDR (KDR) | 10 nM inhibition ratio RET (RET) | inhibition ratio FGFR1 (100 nM) (FGFR1) | inhibition ratio KDR (100 nM) (KDR; 100 nM compound) | inhibition ratio RET (100 nM) (RET; 100 nM compound) | Compound |
| --- | --- | --- | --- | --- | --- | --- |
| 77.2 | 24.3 | 79.4 |  |  |  | CN1CCN(Cc2ccc(NC(=O)c3ccc(Cl)c(C#Cc4cc(OCCO)cnc4N)c3)cc2C(F)(F)F)CC1 [Example 26] |
| 59.3 | 35.1 | 67.8 |  |  |  | COCc1cnc(N)c(C#Cc2cc(C(=O)Nc3ccc(CN4CCN(C)CC4)c(C(F)(F)F)c3)ccc2Cl)c1 [Example 31] |
| 44.3 | 18.0 | 57.8 |  |  |  | CN(C)Cc1cnc(N)c(C#Cc2cc(C(=O)Nc3ccc(CN4CCN(C)CC4)c(C(F)(F)F)c3)ccc2Cl)c1 [Example 34] |
| 57.9 | 32.1 | 44.3 |  |  |  | CNc1cnc(N)c(C#Cc2cc(C(=O)Nc3ccc(CN4CCN(C)CC4)c(C(F)(F)F)c3)ccc2Cl)c1 [Example 35] |
| 48.1 | 33.2 | 66.3 |  |  |  | CC(=O)Nc1cnc(N)c(C#Cc2cccc(C(=O)Nc3ccc(CN4CCN(C)CC4)c(C(F)(F)F)c3)c2)c1 [Example 37] |
| 53.4 | 36.4 | 88.0 |  |  |  | C=CC(=O)Nc1cnc(N)c(C#Cc2cc(C(=O)Nc3ccc(CN4CCN(C)CC4)c(C(F)(F)F)c3)ccc2Cl)c1 [Example 39] |
| 58.2 | 36.6 | 77.3 |  |  |  | CN(C)CC=CC(=O)Nc1cnc(N)c(C#Cc2cc(C(=O)Nc3ccc(CN4CCN(C)CC4)c(C(F)(F)F)c3)ccc2Cl)c1 [Example 40] |
| 48.7 | 34.3 | 78.0 |  |  |  | CN1CCN(Cc2ccc(NC(=O)c3cccc(C#Cc4nc(CO)cnc4N)c3)cc2C(F)(F)F)CC1 [Example 48] |
| 33.2 | 39.5 | 16.4 |  |  |  | CNc1cncc(C#Cc2cc(C(=O)Nc3ccc(CN4CCN(C)CC4)c(C(F)(F)F)c3)ccc2C)c1 [Example A34, reference compound] |
| 35.1 | 32.3 | 30.3 |  |  |  | CN1CCN(Cc2ccc(NC(=O)c3ccc(Cl)c(C#Cc4cccnc4F)c3)cc2C(F)(F)F)CC1 [HuFGFR150, reference compound] |
